From patent US20240132521A1, “COMPOUNDS AND METHODS FOR MODULATING HER2” (Iambic Therapeutics, Inc., priority 2022, published 2024)

Assays:
wtEGFR = target: T1, wtEGFR (Homo sapiens, UniProt P00533); assay: HotSpot radiometric kinase activity assay, wtEGFR; conditions: biochemical activity, 4 nM wtEGFR, 10 μM 33P-ATP, 2 hours, read-out: EGFR WT IC50
T1 construct: purchased Invitrogen PR7295B
Description: (§1) The purpose of the wtERBB2, ERBB2-A775_G776insYVMA (ERBB2YVMA), wtEGFR biochemical assay was to evaluate the inhibition (% inhibition and IC50 values) of the small molecule inhibitors by using the “HotSpot” radiometric kinase activity assay. HotSpot assays monitor the production of kinase substrate by the radioactive gamma phosphate of adenosine triphosphate (33P-ATP) during biochemical reactions. HotSpot assays was performed in steps upon completion of the kinase reaction: deposition of a reaction mixture aliquot onto P81 ion exchange paper, extensive washing of the aforementioned P81 paper using phosphoric acid to remove unbound radiolabeled 33P-ATP from the P81 paper, and finally visualization and quantification of the dried P81 paper utilizing a phosphoimager. […] Typical reaction solutions (10 μL, final reaction volume) contained the following buffer conditions: 20 mM Hepes (pH 7.5), 10 mM MgCl2, 1 mM EGTA, 0.01% Brij35, 0.02 mg/mL BSA, 0.1 mM Na3VO4, 2 mM DTT, 1% DMSO. The assay was primed by preparing a fresh 0.2 mg/mL solution of pEY (Sigma Cat: P7244) substrate in the reaction buffer and supplementing that solution with […] of MnCl2 as substrate cofactor (Sigma Cat: M9522). The kinase of interest was then added to the solution at the appropriate concentration (30 nM wtERBB2 from, or 20 nM ERBB2YVMA, or 4 nM wtEGFR) and gently mixed prior to delivery of compound in 100% DMSO by acoustic dispensing (Beckman Echo550). Compound, Kinase, and substrate were allowed to incubate for 20 min at room temperature prior to the initiation of the reaction by addition of 33P-ATP (PerkinElmer Cat: NEG602, final conc 10 μM). […] IC50 determinations were made from a plot of kinase activity as a function of inhibitor concentration fit to the 4-parameter IC50 equation with the enzyme concentration held constant using GraphPad Prism (San Diego).

[1] = target: T2, ERBB2-A775_G776insYVMA (ERBB2YVMA) (Homo sapiens, UniProt P04626, INS775YVMA); assay: HotSpot radiometric kinase activity assay, ERBB2YVMA; conditions: biochemical activity, 20 nM ERBB2YVMA, 10 μM 33P-ATP, 2 hours, read-out: HER2 - YVMA IC50
T2 construct: purchased SignalChem E27-13BG
T2 sequence (P04626 with tags, fused parts or gaps INS775YVMA limits assumed): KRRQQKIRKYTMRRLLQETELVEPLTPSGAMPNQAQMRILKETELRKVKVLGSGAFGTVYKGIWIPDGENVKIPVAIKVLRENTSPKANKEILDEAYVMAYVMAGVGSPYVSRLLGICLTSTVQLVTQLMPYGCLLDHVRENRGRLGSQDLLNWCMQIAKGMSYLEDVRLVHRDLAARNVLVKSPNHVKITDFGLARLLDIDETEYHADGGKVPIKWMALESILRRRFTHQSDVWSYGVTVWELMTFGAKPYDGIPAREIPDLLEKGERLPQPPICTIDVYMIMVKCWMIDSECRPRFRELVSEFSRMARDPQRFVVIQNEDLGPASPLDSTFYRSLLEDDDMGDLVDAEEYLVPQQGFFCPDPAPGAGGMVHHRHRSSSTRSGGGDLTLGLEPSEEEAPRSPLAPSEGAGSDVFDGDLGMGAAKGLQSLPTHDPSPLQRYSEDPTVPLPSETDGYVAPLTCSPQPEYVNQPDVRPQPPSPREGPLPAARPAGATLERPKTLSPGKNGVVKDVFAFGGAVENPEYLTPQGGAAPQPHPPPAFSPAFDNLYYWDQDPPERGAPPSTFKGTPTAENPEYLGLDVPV
Description: as §1

BaF3_HER2WT cells = BaF3_HER2WT cells (Homo sapiens, UniProt P04626); assay: Cell growth inhibition assay (CellTiterGlo), BaF3_HER2WT; format: cell-based; conditions: 3-day treatment, CellTiterGlo, read-out: Cell growth inhibition activity, HER2 WT
BaF3_HER2WT cells, sequence (P04626 whole entry, change not shown): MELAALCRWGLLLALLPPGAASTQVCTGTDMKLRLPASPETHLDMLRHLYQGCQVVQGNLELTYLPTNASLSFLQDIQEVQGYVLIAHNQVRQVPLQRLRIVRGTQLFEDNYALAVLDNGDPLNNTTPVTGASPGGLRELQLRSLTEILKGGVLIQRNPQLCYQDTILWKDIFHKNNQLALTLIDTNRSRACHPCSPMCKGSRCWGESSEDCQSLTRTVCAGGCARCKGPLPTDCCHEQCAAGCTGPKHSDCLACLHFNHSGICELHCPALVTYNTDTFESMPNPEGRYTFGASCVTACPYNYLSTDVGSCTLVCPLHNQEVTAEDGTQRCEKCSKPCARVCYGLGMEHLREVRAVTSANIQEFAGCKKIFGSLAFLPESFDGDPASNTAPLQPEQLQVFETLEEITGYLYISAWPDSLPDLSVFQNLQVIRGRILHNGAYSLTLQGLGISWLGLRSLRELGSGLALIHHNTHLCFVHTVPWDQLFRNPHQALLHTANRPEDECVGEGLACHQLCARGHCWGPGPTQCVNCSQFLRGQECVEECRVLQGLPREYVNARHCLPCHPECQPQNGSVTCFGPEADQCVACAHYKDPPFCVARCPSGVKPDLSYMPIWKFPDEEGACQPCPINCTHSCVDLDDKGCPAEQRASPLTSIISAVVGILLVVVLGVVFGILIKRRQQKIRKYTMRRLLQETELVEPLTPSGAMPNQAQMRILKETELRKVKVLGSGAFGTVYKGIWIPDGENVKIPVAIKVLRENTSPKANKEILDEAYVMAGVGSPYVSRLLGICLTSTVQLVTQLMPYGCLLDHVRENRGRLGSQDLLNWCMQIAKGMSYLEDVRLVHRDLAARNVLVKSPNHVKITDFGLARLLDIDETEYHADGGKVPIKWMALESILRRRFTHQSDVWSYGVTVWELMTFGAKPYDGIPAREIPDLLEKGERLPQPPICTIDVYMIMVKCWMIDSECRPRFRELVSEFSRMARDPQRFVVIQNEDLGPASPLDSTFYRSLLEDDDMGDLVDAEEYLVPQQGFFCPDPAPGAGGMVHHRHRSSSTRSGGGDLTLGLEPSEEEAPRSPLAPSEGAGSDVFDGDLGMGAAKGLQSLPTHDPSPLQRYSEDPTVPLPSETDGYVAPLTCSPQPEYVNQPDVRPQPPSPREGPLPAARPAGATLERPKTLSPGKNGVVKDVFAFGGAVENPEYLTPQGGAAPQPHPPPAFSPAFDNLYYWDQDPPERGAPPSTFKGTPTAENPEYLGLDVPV

BaF3_HER2YVMA cells = BaF3_HER2YVMA cells (Homo sapiens, UniProt P04626, DUP772-775, cells depend on it); assay: Cell growth inhibition assay (CellTiterGlo), BaF3_HER2YVMA; format: cell-based; conditions: 3-day treatment, CellTiterGlo, read-out: Cell growth inhibition activity, HER2 - YVMA
BaF3_HER2YVMA cells, sequence (P04626 with tags, fused parts or gaps DUP772-775): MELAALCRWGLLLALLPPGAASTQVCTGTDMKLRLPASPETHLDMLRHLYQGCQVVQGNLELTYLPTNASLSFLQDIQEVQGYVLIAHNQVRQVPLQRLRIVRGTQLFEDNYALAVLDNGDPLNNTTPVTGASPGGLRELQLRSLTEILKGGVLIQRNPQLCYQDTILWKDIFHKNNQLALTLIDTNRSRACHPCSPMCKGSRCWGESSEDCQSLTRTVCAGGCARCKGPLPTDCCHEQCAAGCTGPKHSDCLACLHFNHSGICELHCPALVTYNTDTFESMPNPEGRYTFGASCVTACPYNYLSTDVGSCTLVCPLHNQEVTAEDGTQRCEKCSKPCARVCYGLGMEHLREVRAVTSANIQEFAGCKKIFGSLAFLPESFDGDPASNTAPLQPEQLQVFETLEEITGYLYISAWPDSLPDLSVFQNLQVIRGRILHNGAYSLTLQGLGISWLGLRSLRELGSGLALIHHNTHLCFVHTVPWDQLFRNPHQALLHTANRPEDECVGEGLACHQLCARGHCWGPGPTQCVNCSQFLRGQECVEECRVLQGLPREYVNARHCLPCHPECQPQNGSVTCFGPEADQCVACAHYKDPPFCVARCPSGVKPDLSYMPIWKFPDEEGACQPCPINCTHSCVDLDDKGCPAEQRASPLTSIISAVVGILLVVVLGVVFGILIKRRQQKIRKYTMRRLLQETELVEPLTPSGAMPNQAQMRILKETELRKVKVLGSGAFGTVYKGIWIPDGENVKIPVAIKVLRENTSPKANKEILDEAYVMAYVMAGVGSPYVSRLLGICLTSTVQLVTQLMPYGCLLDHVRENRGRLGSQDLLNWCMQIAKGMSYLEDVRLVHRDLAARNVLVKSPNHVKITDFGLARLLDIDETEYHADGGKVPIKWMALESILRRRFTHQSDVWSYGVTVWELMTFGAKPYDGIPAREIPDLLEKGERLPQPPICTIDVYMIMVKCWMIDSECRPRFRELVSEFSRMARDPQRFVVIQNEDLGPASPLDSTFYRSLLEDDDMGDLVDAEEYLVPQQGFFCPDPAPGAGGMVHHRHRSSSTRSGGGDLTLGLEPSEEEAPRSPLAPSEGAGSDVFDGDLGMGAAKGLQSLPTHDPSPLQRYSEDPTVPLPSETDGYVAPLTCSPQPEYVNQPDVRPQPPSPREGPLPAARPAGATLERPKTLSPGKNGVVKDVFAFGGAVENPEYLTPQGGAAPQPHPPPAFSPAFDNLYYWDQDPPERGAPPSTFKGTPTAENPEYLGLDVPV

BaF3_EGFRWT cells = BaF3_EGFRWT cells (Homo sapiens, UniProt P00533); assay: Cell growth inhibition assay (CellTiterGlo), BaF3_EGFRWT; format: cell-based; conditions: 3-day treatment, CellTiterGlo, read-out: Cell growth inhibition activity, EGFR WT
BaF3_EGFRWT cells, sequence (P00533 whole entry, change not shown): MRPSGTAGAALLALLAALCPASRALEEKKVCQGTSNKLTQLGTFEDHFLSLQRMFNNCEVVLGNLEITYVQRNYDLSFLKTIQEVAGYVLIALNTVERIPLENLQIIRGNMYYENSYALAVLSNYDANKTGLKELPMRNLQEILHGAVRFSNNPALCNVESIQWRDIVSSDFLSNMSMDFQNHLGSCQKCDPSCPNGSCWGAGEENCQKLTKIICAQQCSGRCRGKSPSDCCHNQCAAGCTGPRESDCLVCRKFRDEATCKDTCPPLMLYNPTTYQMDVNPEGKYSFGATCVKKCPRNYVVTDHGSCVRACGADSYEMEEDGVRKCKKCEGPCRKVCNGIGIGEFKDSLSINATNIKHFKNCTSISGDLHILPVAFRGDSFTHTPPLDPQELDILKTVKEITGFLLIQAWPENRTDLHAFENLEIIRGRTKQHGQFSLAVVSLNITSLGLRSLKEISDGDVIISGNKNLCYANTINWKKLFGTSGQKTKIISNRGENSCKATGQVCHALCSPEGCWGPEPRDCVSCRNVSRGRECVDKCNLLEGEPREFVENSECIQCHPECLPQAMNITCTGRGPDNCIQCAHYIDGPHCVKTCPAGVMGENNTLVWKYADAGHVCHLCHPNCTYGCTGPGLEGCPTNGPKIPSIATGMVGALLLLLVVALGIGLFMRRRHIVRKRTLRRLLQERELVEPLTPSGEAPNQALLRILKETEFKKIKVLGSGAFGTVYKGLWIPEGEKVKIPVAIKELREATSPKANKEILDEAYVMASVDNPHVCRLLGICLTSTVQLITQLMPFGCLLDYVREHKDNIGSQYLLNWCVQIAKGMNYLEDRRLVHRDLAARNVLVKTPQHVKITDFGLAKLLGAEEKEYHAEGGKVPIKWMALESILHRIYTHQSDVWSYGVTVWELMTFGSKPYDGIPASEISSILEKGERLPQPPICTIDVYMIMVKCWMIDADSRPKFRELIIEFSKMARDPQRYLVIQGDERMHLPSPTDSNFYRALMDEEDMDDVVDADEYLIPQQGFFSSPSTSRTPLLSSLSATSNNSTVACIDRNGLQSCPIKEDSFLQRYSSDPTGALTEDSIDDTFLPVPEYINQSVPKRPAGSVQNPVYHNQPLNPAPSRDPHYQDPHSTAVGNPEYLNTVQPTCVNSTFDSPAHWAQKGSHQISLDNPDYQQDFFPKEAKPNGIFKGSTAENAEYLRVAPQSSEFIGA

| IC50 (wtEGFR) [nM] | IC50 [1] [nM] | GI50 (BaF3_HER2WT cells) [nM] | GI50 (BaF3_HER2YVMA cells) [nM] | GI50 (BaF3_EGFRWT cells) [nM] | Compound |
| --- | --- | --- | --- | --- | --- |
| 1500 to 5000 | – | – | – | – | Cc1cc(Nc2ncnn3ccc(C4CCN(C(=O)/C=C/CN(C)C)C4)c23)ccc1Oc1ccn2ncnc2c1 (single isomer, unassigned) [Example 100] |
| 500 to 1500 | – | – | – | – | Cc1cc(Nc2ncnn3ccc(C4CCCN(C(=O)/C=C/CN(C)C)C4)c23)ccc1Oc1ccn2ncnc2c1 (single isomer, unassigned) [Example 107] |
| 1500 to 5000 | – | – | – | – | Cc1cc(Nc2ncnn3ccc(C4CCCN(C(=O)/C=C/CN(C)C)C4)c23)ccc1Oc1ccn2ncnc2c1 (single isomer, unassigned) [Example 108] |
| 200 to 500 | – | – | – | – | Cc1cc(Nc2ncnn3ccc(C4CCCN(C(=O)/C=C/CN(C)C)CC4)c23)ccc1Oc1ccn2ncnc2c1 (single isomer, unassigned) [Example 110] |
| 1500 to 5000 | 200 to 500 | < 200 | 200 to 500 | 1500 to 5000 | C=CC(=O)NC1CCN(C(=O)c2ccn3ncnc(Nc4ccc(Oc5ccn6ncnc6c5)c(C)c4)c23)CC1 [Example 5, N-(1-(4-((4-([1,2,4]triazolo[1,5-a]pyridin-7-yloxy)-3-methylphenyl)amino)pyrrolo[2,1-f][1,2,4]triazine-5-carbonyl)piperidin-4-yl)acrylamide] |
| 500 to 1500 | < 200 | < 200 | < 200 | 1500 to 5000 | C=CC(=O)N1CCC(c2ccn3ncnc(Nc4ccc(Oc5ccn6ncnc6c5)c(C)c4)c23)C1 (stereo not drawn) [Example 11, 1-(3-(4-((4-([1,2,4]triazolo[1,5-a]pyridin-7-yloxy)-3-methylphenyl)amino)pyrrolo[2,1-f][1,2,4]triazin-5-yl)pyrrolidin-1-yl)prop-2-en-1-one] |
| 1500 to 5000 | < 200 | < 200 | 200 to 500 | 1500 to 5000 | C=CC(=O)NCCn1cc(-c2ccn3ncnc(Nc4ccc(Oc5ccn6ncnc6c5)c(C)c4)c23)cn1 [Example 13, N-(2-(4-(4-((4-([1,2,4]triazolo[1,5-a]pyridin-7-yloxy)-3-methylphenyl)amino)pyrrolo[2,1-f][1,2,4]triazin-5-yl)-1H-pyrazol-1-yl)ethyl)acrylamide] |
| 200 to 500 | < 200 | < 200 | < 200 | 1500 to 5000 | C=CC(=O)NC1CN(c2ccn3ncnc(Nc4ccc(Oc5ccn6ncnc6c5)c(C)c4)c23)C1 [Example 14, N-(1-(4-((4-([1,2,4]triazolo[1,5-a]pyridin-7-yloxy)-3-methylphenyl)amino)pyrrolo[2,1-f][1,2,4]triazin-5-yl)azetidin-3-yl)acrylamide] |
| 1500 to 5000 | < 200 | 200 to 500 | 500 to 1500 | 1500 to 5000 | C=CC(=O)N1CC2(C1)CN(c1ccn3ncnc(Nc4ccc(Oc5ccn6ncnc6c5)c(C)c4)c13)C2 [Example 16, 1-(6-(4-((4-([1,2,4]triazolo[1,5-a]pyridin-7-yloxy)-3-methylphenyl)amino)pyrrolo[2,1-f][1,2,4]triazin-5-yl)-2,6-diazaspiro[3.3]heptan-2-yl)prop-2-en-1-one] |
| 1500 to 5000 | < 200 | 200 to 500 | 500 to 1500 | 1500 to 5000 | C=C(F)C(=O)NC1CN(c2ccn3ncnc(Nc4ccc(Oc5ccn6ncnc6c5)c(C)c4)c23)C1 [Example 18, N-(1-(4-((4-([1,2,4]triazolo[1,5-a]pyridin-7-yloxy)-3-methylphenyl)amino)pyrrolo[2,1-f][1,2,4]triazin-5-yl)azetidin-3-yl)-2-fluoroacrylamide] |
| 1500 to 5000 | 200 to 500 | 200 to 500 | 500 to 1500 | 1500 to 5000 | C=C(F)C(=O)N1CC(n2cc(-c3ccn4ncnc(Nc5ccc(Oc6ccn7ncnc7c6)c(C)c5)c34)cn2)C1 [Example 19, 1-(3-(4-(4-((4-([1,2,4]triazolo[1,5-a]pyridin-7-yloxy)-3-methylphenyl)amino)pyrrolo[2,1-f][1,2,4]triazin-5-yl)-1H-pyrazol-1-yl)azetidin-1-yl)-2-fluoroprop-2-en-1-one] |
| 500 to 1500 | < 200 | < 200 | < 200 | 1500 to 5000 | Cc1cc(Nc2ncnn3ccc(N4CCN(C(=O)/C=C/CN(C)C)CC4)c23)ccc1Oc1ccn2ncnc2c1 [Example 22, (E)-1-(4-(4-((4-([1,2,4]triazolo[1,5-a]pyridin-7-yloxy)-3-methylphenyl)amino)pyrrolo[2,1-f][1,2,4]triazin-5-yl)piperazin-1-yl)-4-(dimethylamino)but-2-en-1-one] |
| 500 to 1500 | < 200 | 500 to 1500 | 1500 to 5000 | 1500 to 5000 | Cc1cc(Nc2ncnn3ccc(C4CCN(C(=O)CCCN(C)C)CC4)c23)ccc1Oc1ccn2ncnc2c1 [Example 23, 1-(4-(4-((4-([1,2,4]triazolo[1,5-a]pyridin-7-yloxy)-3-methylphenyl)amino)pyrrolo[2,1-f][1,2,4]triazin-5-yl)piperidin-1-yl)-4-(dimethylamino)butan-1-one] |
| 200 to 500 | < 200 | 1500 to 5000 | 1500 to 5000 | 1500 to 5000 | Cc1cc(Nc2ncnn3ccc(C4CN(C(=O)/C=C/CN)C4)c23)ccc1Oc1ccn2ncnc2c1 [Example 87, (E)-1-(3-(4-((4-([1,2,4]triazolo[1,5-a]pyridin-7-yloxy)-3-methylphenyl)amino)pyrrolo[2,1-f][1,2,4]triazin-5-yl)azetidin-1-yl)-4-aminobut-2-en-1-one] |
| 500 to 1500 | < 200 | < 200 | 500 to 1500 | 1500 to 5000 | Cc1cc(Nc2ncnn3ccc(C4CN(C(=O)/C=C/CN5CC(F)(F)C5)C4)c23)ccc1Oc1ccn2ncnc2c1 [Example 91, (E)-1-(3-(4-((4-([1,2,4]triazolo[1,5-a]pyridin-7-yloxy)-3-methylphenyl)amino)pyrrolo[2,1-f][1,2,4]-triazin-5-yl)azetidin-1-yl)-4-(3,3-difluoroazetidin-1-yl)but-2-en-1-one] |
| – | < 200 | < 200 | 200 to 500 | 1500 to 5000 | Cc1cc(Nc2ncnn3ccc(C4CCN(C(=O)/C=C/CN(C)C)C4)c23)ccc1Oc1ccn2ncnc2c1 (stereo not drawn) [Example 98, (E)-1-(3-(4-((4-([1,2,4]triazolo[1,5-a]pyridin-7-yloxy)-3-methylphenyl)amino)-pyrrolo-[2,1-f][1,2,4]triazin-5-yl)pyrrolidin-1-yl)-4-(dimethylamino)but-2-en-1-one] |
| – | < 200 | < 200 | < 200 | 1500 to 5000 | Cc1cc(Nc2ncnn3ccc(C4CN(C(=O)/C=C/CN(C)C)C4)c23)ccc1Oc1ccc2c(c1)ncn2C [Example 101, (E)-4-(dimethylamino)-1-(3-(4-((3-methyl-4-((1-methyl-1H-benzo[d]imidazol-5-yl)oxy)phenyl)amino)pyrrolo[2,1-f][1,2,4]triazin-5-yl)azetidin-1-yl)but-2-en-1-one] |
| – | < 200 | < 200 | < 200 | 500 to 1500 | C=CC(=O)N1CCC(c2ccn3ncnc(Nc4ccc(Oc5ccc6c(c5)ncn6C)c(C)c4)c23)CC1 [Example 113, 1-(4-(4-((3-methyl-4-((1-methyl-1H-benzo[d]imidazol-5-yl)oxy)phenyl)amino)pyrrolo[2,1-f][1,2,4]triazin-5-yl)piperidin-1-yl)prop-2-en-1-one] |

| Compound | IC50 (wtEGFR) [nM] | IC50 [1] [nM] | GI50 (BaF3_HER2WT cells) [nM] | GI50 (BaF3_HER2YVMA cells) [nM] | GI50 (BaF3_EGFRWT cells) [nM] |
| --- | --- | --- | --- | --- | --- |
| Cc1cc(Nc2ncnn3ccc(C4CN(C(=O)/C=C/CN5CCCC5)C4)c23)ccc1Oc1ccn2ncnc2c1 [Example 97, (E)-1-(3-(4-((4-([1,2,4]triazolo[1,5-a]pyridin-7-yloxy)-3-methylphenyl)amino)pyrrolo[2,1-f][1,2,4]triazin-5-yl)azetidin-1-yl)-4-(pyrrolidin-1-yl)but-2-en-1-one] | – | < 200 | < 200 | < 200 | 1500 to 5000 |
